Assay results from ChEMBL document CHEMBL1201862, “PubChem BioAssay data set” (2004).
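Growth conditions: 96-well plates. Treatment: test compound, 48 hours, 5 concentrations. Analysis: linear interpolation between bracketing concentrations; unreached endpoints set to highest concentration. GI50 marks 50% less growth.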 Active and inactive are the calls of the source. Rule as the data show it: active = GI50 up to about 1.1 µM and inactive = higher.

Experiments:
Test in all cases: NCI anticancer screen, dose series, 48 h
SF-295 = tested on: SF-295
SN12C = tested on: SN12C
Malme-3M = tested on: Malme-3M
OVCAR-3 = tested on: OVCAR-3
HCT-116 = tested on: HCT-116
SNB-75 = tested on: SNB-75
SK-MEL-5 = tested on: SK-MEL-5
786-0 = tested on: 786-0
SK-MEL-2 = tested on: SK-MEL-2
MOLT-4 = tested on: MOLT-4
TK-10 = tested on: TK-10
COLO 205 = tested on: COLO 205
SK-OV-3 = tested on: SK-OV-3
A549 = tested on: A549
NCI-H226 = tested on: NCI-H226
HCC 2998 = tested on: HCC 2998

`O=C1NC2(CCCCC2)C2=C1CCCCC2` was tested, and the GI50 (SF-295) was > 100 µM (inactive), the GI50 (SN12C) was > 100 µM (inactive) and the GI50 (Malme-3M) was > 100 µM (inactive). For the same compound, the GI50 (OVCAR-3) was > 100 µM (inactive), the GI50 (HCT-116) was > 100 µM (inactive) and the GI50 (SNB-75) was > 100 µM (inactive). For the same compound, the GI50 (SK-MEL-5) was > 100 µM (inactive), the GI50 (786-0) was > 100 µM (inactive) and the GI50 (SK-MEL-2) was > 100 µM (inactive). For the same compound, the GI50 (MOLT-4) was > 100 µM (inactive), the GI50 (TK-10) was > 100 µM (inactive) and the GI50 (COLO 205) was > 100 µM (inactive). The GI50 (SK-OV-3) was > 100 µM (inactive) and the GI50 (A549) was > 100 µM (inactive).

In the case of `O=C(NC1CCC[C@H]1OC(=O)c1ccccc1)c1ccccc1` (stereo partly specified), the GI50 (SF-295) is reported as > 100 µM (inactive), the GI50 (SN12C) is reported as 66.4 µM (inactive) and the GI50 (Malme-3M) is reported as 0.0489 µM (active). The GI50 (OVCAR-3) was 16.2 µM (inactive), the GI50 (HCT-116) was 81.3 µM (inactive) and the GI50 (SNB-75) was 10.7 µM (inactive). The GI50 (SK-MEL-5) was 37.2 µM (inactive), the GI50 (786-0) was > 100 µM (inactive) and the GI50 (SK-MEL-2) was > 100 µM (inactive). The GI50 (MOLT-4) was 30.1 µM (inactive), the GI50 (TK-10) was > 100 µM (inactive) and the GI50 (SK-OV-3) was 43.2 µM (inactive). The GI50 (A549) was 40.4 µM (inactive) and the GI50 (NCI-H226) was 13.7 µM (inactive).

With `CC(=O)OCC(OC(C)=O)C(OC(C)=O)C(OC(C)=O)C(=O)CNn1c(-c2ccccc2Cl)nc2ccc(Br)cc2c1=O` (stereo unspecified) the GI50 (SF-295) was > 100 µM (inactive), the GI50 (SN12C) was 36.3 µM (inactive) and the GI50 (Malme-3M) was > 100 µM (inactive). For the same compound, the GI50 (OVCAR-3) was 62.2 µM (inactive), the GI50 (HCT-116) was > 100 µM (inactive) and the GI50 (SNB-75) was 59.8 µM (inactive). For the same compound, the GI50 (SK-MEL-5) was 57.5 µM (inactive), the GI50 (786-0) was > 100 µM (inactive) and the GI50 (SK-MEL-2) was > 100 µM (inactive). For the same compound, the GI50 (MOLT-4) was 34.6 µM (inactive), the GI50 (COLO 205) was > 100 µM (inactive) and the GI50 (SK-OV-3) was > 100 µM (inactive). For the same compound, the GI50 (A549) was > 100 µM (inactive).

In the case of `COc1ccc2c(c1)[n+]([O-])c(-c1ccc([N+](=O)[O-])cc1)c(N)[n+]2[O-]`, the GI50 (SF-295) is reported as > 100 µM (inactive), the GI50 (SN12C) is reported as > 100 µM (inactive) and the GI50 (Malme-3M) is reported as > 100 µM (inactive). For the same compound, the GI50 (OVCAR-3) was > 100 µM (inactive), the GI50 (HCT-116) was 26.6 µM (inactive) and the GI50 (SNB-75) was > 100 µM (inactive). For the same compound, the GI50 (SK-MEL-5) was > 100 µM (inactive), the GI50 (786-0) was > 100 µM (inactive) and the GI50 (SK-MEL-2) was 80.4 µM (inactive). The GI50 (MOLT-4) was 22.3 µM (inactive), the GI50 (COLO 205) was 47.4 µM (inactive) and the GI50 (SK-OV-3) was > 100 µM (inactive). The GI50 (A549) was 70.8 µM (inactive) and the GI50 (NCI-H226) was > 100 µM (inactive).

In the case of `Cc1c(C(=O)Nc2ccc(Cl)cc2)nc(N)nc1-c1cccc(Cl)c1`, the GI50 (SF-295) is reported as > 100 µM (inactive), the GI50 (SN12C) is reported as > 100 µM (inactive) and the GI50 (Malme-3M) is reported as > 100 µM (inactive). The GI50 (OVCAR-3) was > 100 µM (inactive), the GI50 (HCT-116) was 57.3 µM (inactive) and the GI50 (SK-MEL-5) was > 100 µM (inactive). For the same compound, the GI50 (786-0) was > 100 µM (inactive), the GI50 (MOLT-4) was > 100 µM (inactive) and the GI50 (COLO 205) was 77.3 µM (inactive). For the same compound, the GI50 (SK-OV-3) was > 100 µM (inactive), the GI50 (A549) was 74.5 µM (inactive) and the GI50 (NCI-H226) was > 100 µM (inactive). For the same compound, the GI50 (HCC 2998) was 61.9 µM (inactive).

In the case of `COC[C@@H](/N=C/N1CCc2cc(OC)c(OC)cc2[C@@H]1C)C(C)(C)C`, the GI50 (SF-295) is reported as > 100 µM (inactive), the GI50 (SN12C) is reported as > 100 µM (inactive) and the GI50 (Malme-3M) is reported as > 100 µM (inactive). The GI50 (OVCAR-3) was > 100 µM (inactive), the GI50 (HCT-116) was > 100 µM (inactive) and the GI50 (SNB-75) was > 100 µM (inactive). For the same compound, the GI50 (SK-MEL-5) was > 100 µM (inactive), the GI50 (786-0) was > 100 µM (inactive) and the GI50 (SK-MEL-2) was 86.7 µM (inactive). The GI50 (MOLT-4) was > 100 µM (inactive), the GI50 (TK-10) was > 100 µM (inactive) and the GI50 (COLO 205) was > 100 µM (inactive). For the same compound, the GI50 (SK-OV-3) was > 100 µM (inactive), the GI50 (A549) was > 100 µM (inactive) and the GI50 (NCI-H226) was > 100 µM (inactive).

With `Cc1ccc(S(=O)(=O)NC2CCCCO2)cc1` (stereo unspecified) the GI50 (SN12C) was > 100 µM (inactive), the GI50 (Malme-3M) was > 100 µM (inactive) and the GI50 (OVCAR-3) was > 100 µM (inactive). The GI50 (HCT-116) was > 100 µM (inactive), the GI50 (SNB-75) was > 100 µM (inactive) and the GI50 (SK-MEL-5) was > 100 µM (inactive). For the same compound, the GI50 (786-0) was > 100 µM (inactive), the GI50 (MOLT-4) was > 100 µM (inactive) and the GI50 (COLO 205) was > 100 µM (inactive). The GI50 (SK-OV-3) was > 100 µM (inactive), the GI50 (A549) was > 100 µM (inactive) and the GI50 (NCI-H226) was > 100 µM (inactive). The GI50 (HCC 2998) was > 100 µM (inactive).

`Cc1cc(O)nc(NNC(C#N)c2ccc([N+](=O)[O-])cc2)n1` (stereo unspecified) was tested, and the GI50 (SF-295) was > 100 µM (inactive), the GI50 (SN12C) was > 100 µM (inactive) and the GI50 (Malme-3M) was 70.1 µM (inactive). For the same compound, the GI50 (OVCAR-3) was > 100 µM (inactive), the GI50 (HCT-116) was 80.4 µM (inactive) and the GI50 (SNB-75) was 34.8 µM (inactive). The GI50 (SK-MEL-5) was > 100 µM (inactive), the GI50 (786-0) was > 100 µM (inactive) and the GI50 (SK-MEL-2) was > 100 µM (inactive). The GI50 (MOLT-4) was > 100 µM (inactive), the GI50 (TK-10) was > 100 µM (inactive) and the GI50 (COLO 205) was > 100 µM (inactive). The GI50 (SK-OV-3) was > 100 µM (inactive), the GI50 (A549) was > 100 µM (inactive) and the GI50 (NCI-H226) was > 100 µM (inactive).
